Results published in patent publication US5583142A, “Analgesic and nootropic drugs” (priority 1992, dated 1996).
Read-outs that look alike come from different tables or passages of the source.

Key:
[1] = mouse passive avoidance test, amnesia induced by hypoxia; assay type: in vivo; conditions: 30 to 300 mg/kg i.p.
Procedure: The nootropic action (learning facilitation, memory enhancement, intelligence booster, cognition activation) was assessed both in mouse and in rat by the two following methods: the mouse was tested by the passive avoidance method, using the so-called light-dark box. A painful stimulus, i.e. an electrically-evoked shock through the animal paws, and an unpleasant but not painful stimulus (mice fall into a water-ice mixture ensuing a sudden dark box floor opening) were used. A non-painful stimulus was required because the data referred to learning had not to be untruthfully negative due to the analgesic action of the claimed molecules. The painful stimulus (electric shock), like the unpleasant but not painful one, was effective at the interval of doses at which the claimed molecules were clearly nootropic but not yet analgesic. Independently of the type of stimulus used, the procedure consists of two experimental phases denominated, respectively, Training and Retention, the latter being carried out 24 hrs after the former. […] To this purpose the time taken by mice to enter the dark box is measured again: the longer the time recorded in the second day when compared with the first (Retention minus Training), the higher the mice learning and memorizing capabilities. […]

[2] = mouse
Procedure: In FIGS. 7 and 7 bis vertical lines give s.e. mean. Each column represents the mean of 6-10 mice. SM-21 maleate, PG-9 maleate, SM-32 oxalate, cocaine HCl, amphetamine sulphate and caffeine were administered 15 min before test.

[3] = test system: presynaptic muscarinic autoreceptor; conditions: cited from earlier work

NC(=O)CN1CCCC1=O [Piracetam]
effect on amnesia induced by hypoxia [1]: inactive

CC(N)Cc1ccccc1 (centres unmarked) [amphetamine]
motor activity and curiosity (exploration activity) ([2]; FIG. 7 and FIG. 7 bis): remarkably increase the motor activity

Cn1c(=O)c2c(ncn2C)n(C)c1=O [caffeine]
motor activity and curiosity (exploration activity) ([2]; FIG. 7 and FIG. 7 bis): remarkably increase the motor activity

CCCCN1CCCCC1C(=O)Nc1c(C)cccc1C (centres unmarked) [bupivacaine]
selectivity and efficacy as antagonists of the presynaptic muscarinic autoreceptor [3]: little selective as well as little efficacious

CCN(CC)CCOC(=O)c1ccc(N)cc1 [procaine]
selectivity and efficacy as antagonists of the presynaptic muscarinic autoreceptor [3]: little selective as well as little efficacious

COC(=O)[C@H]1[C@@H](OC(=O)c2ccccc2)C[C@@H]2CC[C@H]1N2C [cocaine]
motor activity and curiosity (exploration activity) ([2]; in vivo): remarkably increase the motor activity

CCN(CC)CCNC(=O)c1ccc(N)cc1 [procainamide]
selectivity and efficacy as antagonists of the presynaptic muscarinic autoreceptor [3]: little selective as well as little efficacious

CN1CCC[C@H]1c1cccnc1 [nicotine]
motor activity and curiosity (exploration activity) ([2]; FIG. 7 and FIG. 7 bis): remarkably increase the motor activity
